Data published in PubChem BioAssay (NCI).
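A five-concentration, 48-hour dose response in 96-well plates underlies each endpoint, interpolated linearly between surrounding concentrations. TGI is the concentration that stops growth completely.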

Tests used:
Test in all cases: NCI-60 cell line screen, 48 h
[1] = system: MOLT-4 leukemia
[2] = system: SK-OV-3 ovarian
[3] = system: RXF 393 renal
[4] = system: SK-MEL-5 melanoma
[5] = system: CAKI-1 renal
[6] = system: NCI-H226 lung
[7] = system: HOP-62 NSCLC
[8] = system: SF-295 CNS
[9] = system: SK-MEL-28 melanoma
[10] = system: MDA-MB-435

Measured: TGI

CC1=NN(c2nc(N)nc(/C(C#N)=C/c3ccncc3)n2)C(C)(C)C1
> 100 µM: all assays above

O=C1c2ccccc2S(=O)(=O)c2ccccc21
> 100 µM: all assays above

CN(C)c1ccc(-c2nc(-c3cc4c(ccc5ccccc54)oc3=O)cs2)cc1
> 100 µM: all assays above
